Source: paper PMC9043997, “LEAP2 reduces postprandial glucose excursions and ad libitum food intake in healthy men” (Cell Reports Medicine, 2022)
Where a SMILES comes first, the peptide text is derived from it. Bridges are numbered along the chain shown (N, C = ends).

Columns and labels:
[1] = Pharmacokinetic parameters of exogenous LEAP2 in healthy men (one-compartment model); type: in vivo, human
Experimental: Eight healthy men, recruited among participants in the placebo-controlled, crossover study, were included in an additional clinical study investigating the kinetic parameters of exogenous LEAP2. Each participant underwent a single experimental day with intravenous infusion of LEAP2 (10 min at a rate of ∼101 pmol/kg/min followed by 110 min at ∼25 pmol/kg/min) (see Figure S1B for an overview of the clinical study design). […] Fasting schedule for participants and all instructions from 48 h prior to the experimental day were similar to the placebo-controlled, crossover study. […] LEAP2 infusion was started at timepoint 0 min and discontinued after 120 min. Blood samples were drawn every 15 min from timepoint −30 to 270 min and, additionally, at timepoints 118, 122, 124, 127 and 130 min. Plasma glucose was measured bedside every 15 min from timepoint −30 to 180 min and every 30 min from timepoint 180 to 270 min with a mean concentration of 4.85 ± 0.02 mmol/L. For analytical procedures related to plasma glucose and LEAP2 concentrations, please see the section “Human plasma analyses”. Every 30 min from time −30 to 270 min, participants rated appetite-related sensations on 100 mm VAS[34] with a score (median (interquartile range)) for hunger of 72 (59–79) mm, prospective food consumption 73 (65–82) mm, satiety 22 (14–33) mm, fullness 21 (12–31) mm, comfort 78 (72–90) mm, thirst 78 (71–89) mm and nausea 3.0 (0–9.0).
We constructed and applied a pharmacokinetic model to the data using the software Monolix (Monolix version 2019R1; Lixoft SAS, Antony, France). The parameters were estimated using the Stochastic Approximation EM algorithm.[22] The one-compartment model assumed input from both endogenous LEAP2 secretion and the exogenous LEAP2 infusion assuming that LEAP2 kinetics followed a single-exponential elimination. We assumed that the endogenous production of LEAP2 was constant i.e. not suppressed during infusion of exogenous LEAP2. This model probably represents a simplification of the actual physiological LEAP2 kinetics, but the data fitted well to model predictions.

wild-type mice = experiment: Fasting insulin and plasma glucose after subcutaneous LEAP2 in fasted wild-type mice; type: in vivo, mouse; settings: fasted female wild-type mice, LEAP2 3 μmol/kg subcutaneous
Experimental: For fasting insulin and glucose concentrations, females (15 weeks of age) were used. Mice were housed four mice per cage. On the experimental day, mice were fasted from four hours before subcutaneous administration until end of the study and randomized by body weight into either vehicle (saline) or LEAP2 dosing (3 μmol/kg). Blood samples were collected at timepoints −60, 20 and 60 min from the retro-orbital vein plexus using EDTA-coated capillary tubes. Plasma was subsequently separated from the blood after centrifugation (3,000 g, 4°C, 5 min) and stored at −80°C until analysis. Blood glucose was measured at timepoints −60, 20 and 60 min from eye blood and at timepoint 0 min from a tail puncture by use of the same glucometer (Contour ™xt meter; Ascensia Diabetes Care, Basel, Switzerland). Mouse plasma insulin concentrations were determined by use of a Mouse/Rat Insulin Kit (cat: K152BZC-1; Meso Scale Discovery, Gaithersburg, Maryland, USA). The assay was performed according to the manufacturer’s instructions, and the plate was measured by use of MESO QuickPlex SQ 120.

CC[C@H](C)[C@@H]1NC(=O)[C@@H]2CSSC[C@@H](C(=O)N[C@@H](CO)C(=O)N[C@@H](CC(C)C)C(=O)N[C@@H](CO)C(=O)N[C@H](C(=O)N[C@@H](C)C(=O)N[C@@H](CCC(N)=O)C(=O)N[C@@H](CCC(=O)O)C(=O)O)C(C)C)NC(=O)[C@H](CCCNC(=N)N)NC(=O)[C@H](CCCNC(=N)N)NC(=O)[C@H](CCCCN)NC(=O)[C@H](CCCNC(=N)N)NC(=O)[C@H](CSSC[C@H](NC(=O)[C@H](CO)NC(=O)[C@H](C)NC(=O)CNC(=O)[C@@H](NC(=O)[C@@H]3CCCN3C(=O)[C@H](CCCNC(=N)N)NC(=O)[C@H](CC(C)C)NC(=O)[C@H](CO)NC(=O)[C@@H](NC(=O)CNC(=O)[C@H](CCCNC(=N)N)NC(=O)[C@H](Cc3c[nH]c4ccccc34)NC(=O)[C@H](Cc3ccccc3)NC(=O)[C@@H]3CCCN3C(=O)[C@@H](NC(=O)[C@@H](N)CCSC)[C@@H](C)O)C(C)C)[C@@H](C)CC)C(=O)N[C@@H](CCCNC(=N)N)C(=O)N[C@@H](CC(=O)O)C(=O)N[C@@H](CC(=O)O)C(=O)N[C@@H](CO)C(=O)N[C@@H](CCC(=O)O)C(=O)N2)NC(=O)[C@H](CC(C)C)NC(=O)[C@H](CCCNC(=N)N)NC(=O)[C@H]([C@@H](C)O)NC1=O [LEAP2, liver-expressed antimicrobial peptide 2] (H-MTPFWRGVSLRPIGASCRDDSECITRLCRKRRCSLSVAQE-OH; disulfide 17-28, 23-33 (inferred); N-terminus and C-terminus assumed)
half-life of LEAP2 ([1]; healthy men n = 8, iv 10 min at ~101 pmol/kg/min then 110 min at ~25 pmol/kg/min, plasma, radioimmunoassay, one-compartment model (Monolix)): ~9 min | endogenous production rate of LEAP2 ([1]; healthy men n = 8, one-compartment model assuming constant endogenous production): 1.9 ± 0.14 nmol/min | Vd ([1]; male, human, plasma, healthy men n = 8, iv 10 min at ~101 pmol/kg/min then 110 min at ~25 pmol/kg/min, 150-min wash-out, one-compartment model (Monolix), read-out: volume of distribution of LEAP2): 14 ± 5.3 L | clearance ([1]; male, human, plasma, healthy men n = 8, iv 10 min at ~101 pmol/kg/min then 110 min at ~25 pmol/kg/min, one-compartment model (Monolix), read-out: metabolic clearance rate of LEAP2): 860 ± 170 mL/min | half-life ([1]; male, human, healthy men n = 8, iv 10 min at ~101 pmol/kg/min then 110 min at ~25 pmol/kg/min, plasma, radioimmunoassay, one-compartment model (Monolix)): 9.1 ± 2.5 min | fasting plasma glucose concentrations vs vehicle (wild-type mice): did not affect fasting plasma glucose concentrations | fasting insulin concentrations vs vehicle (wild-type mice; 20 and 60 min): no effect
